Patent US20250235450A1, “COMBINATION THERAPIES COMPRISING APREMILAST AND TYK2 INHIBITORS” (Celgene Corporation, priority 2019, published 2025)

Experiments:
[1] = system: anti-CD3/anti-CD28 (Th0) or anti-CD3/anti-CD28, IL-1β, IL-6 and IL-23 (Th17) stimulated whole blood; assay: Ex-vivo TruCulture tube assay: cytokine production in stimulated whole blood; format: cell-based, human; settings: for IL-17A levels: control 532 pg/mL
Experimental: Whole blood was received through the Celgene Donor program after informed consent and donor deidentification. All volunteers were healthy and were not on any medications for at least 72 hours prior to the blood draw. Blood was collected in sodium heparin tubes. The assay was started within 2 hours of the blood draw.
An ex-vivo stimulation of healthy donor human whole blood was performed under two different stimulation conditions. Condition Th0 was a stimulation with TruCulture® tubes containing anti-CD3/anti-CD28. Condition Th17 was a stimulation with TruCulture® tubes containing anti-CD3/anti-CD28 plus IL-1β, IL-6 and IL-23. Whole blood was separated into 15 milliliter conical tubes and pre-treated with DMSO, apremilast alone, BMS-986165 alone or BMS-986165 combined with apremilast. Final concentrations were 0.2% DMSO, 1 μM for apremilast alone, 1 μM, 0.1 μM, 0.01 μM and 0.001 μM BMS-986165 alone and in combination with 1 μM apremilast. Blood was mixed well and then incubated in a 37° C./5% CO2 incubator for 1 hour.
The anti-CD3/anti-CD28 (200 ng/ml and 330 ng/ml final concentrations respectively) TruCulture® tubes were thawed on the bench top for 30 minutes and then labeled. Plungers were pressed and then broken off. TruCulture® tubes were placed in a rack standing upright such that the plunger side is pointing down in the rack and the tube-cap is pointing up. While blood was incubating with compound Human recombinant IL-6, IL-1β and IL-23 were added to all Th17 tubes in the following concentrations: 120 ng IL-6, 120 ng IL-1b and 150 ng IL-23. One ml of the pre-treated whole blood was placed in each tube, using sterile pyrogen-free pipette tips. The cap was replaced and the contents of the tube were mixed by inverting 3 times. The tubes were immediately placed in a 37° C. heat block and incubated for 42 hours (tube-cap end). After the 42 hours the tubes were removed from the heat block, tops were unscrewed and 250 μl of the supernatant was removed and transferred into three 96-well polypropylene plates. Samples were immediately frozen at −80° C. The supernatants were then thawed at room temperature and tested neat for cytokine production by Luminex Multi-Plex MagPix technology (Millipore) or IL-22 by ELISA (Abcam). The manufacturer's procedures were followed accordingly.
Data processing for the cytokine analysis was done using Milliplex Analyst (Millipore), and raw data was exported to Excel template for the cytokine analysis. Data from the template was plotted using GraphPad Prism 7.0 (GraphPad Software, Inc., La Jolla, CA) and expressed as pg/ml or % of control. Statistical analysis was also performed using One Way Anova and Dunnett's Post Test.
To evaluate the combinatory effect of apremilast and BMS-986165, data from the two independent treatments were analyzed by comparing the combinatory response against the theoretical additive response of the two agents. The expected additive effect of two agents (A and B) was calculated using the fractional product method: (fu)A,B=(fu)A×(fu)B; where fu=fraction unaffected by treatment.

LPS stimulated PBMCs = assay: Viability of LPS stimulated PBMCs; format: cell-based, human; design: key: ↑: Induced; —: No change; ↓: Reduced
[2] = Th17, 0.01 μM BMS-986165 (combination: + 1 μM apremilast)
[3] = Th17, 0.1 μM BMS-986165 (combination: + 1 μM apremilast)

SMILES: [2H]C([2H])([2H])NC(=O)c1nnc(NC(=O)C2CC2)cc1Nc1cccc(-c2ncn(C)n2)c1OC [BMS-986165, 6-(cyclopropanecarboxamido)-4-((2-methoxy-3-(1-methyl-1H-1,2,4-triazol-3-yl)phenyl)amino)-N-(methyl-d3)pyridazine-3-carboxamide]
- effect on IL-22 cytokine expression ([1]; Th0 and Th17): inhibited
- effect on IL-22 cytokine expression, statistical significance ([1]; Th0 and Th17, 0.1 μM and 1 μM BMS-986165): significantly lowered
- inhibition of TNF-α levels, statistical significance ([1]; Th0 and Th17, 1 μM BMS-986165): significant
- effect on IL-17F, statistical significance ([1]; Th0 and Th17, 0.1 and 1 μM BMS-986165): significantly reduced
- effect on IL-22 cytokine expression ([1]; Th17, 0.001 μM BMS-986165): no effect
- increase in TNF-α production ([1]; Th17, 0.01 μM BMS-986165): 19%
- increase of GM-CSF ([1]; Th17, 0.01 μM BMS-986165): 41%
- CCL20 % of Control [1, 2]: 121.7 % of Control
- GM-CSF % of Control [1, 2]: 141.1 % of Control
- IFN-γ % of Control [1, 2]: 114.2 % of Control
- IL-1β % of Control [1, 2]: 94.2 % of Control
- IL-2 % of Control [1, 2]: 128.5 % of Control
- IL-4 % of Control [1, 2]: 126.5 % of Control
- IL-5 % of Control [1, 2]: 144.3 % of Control
- IL-6 % of Control [1, 2]: 96.8 % of Control
- IL-10 % of Control [1, 2]: 78.4 % of Control
- IL-13 % of Control [1, 2]: 158.1 % of Control
- IL-17A % of Control [1, 2]: 97.7 % of Control
- IL-17F % of Control [1, 2]: 73.6 % of Control
- IL-21 % of Control [1, 2]: 91.5 % of Control
- IL-22 % of Control [1, 2]: 83.3 % of Control
- IL-23 % of Control [1, 2]: 93.8 % of Control
- TNF-α % of Control [1, 2]: 118.5 % of Control
- inhibition of IL-22 cytokine expression [1, 2]: 17%
- IL-17A levels [1, 2]: 519 pg/mL
- increase in TNF-α levels, statistical significance ([1]; Th17, 0.1 μM BMS-986165): significant
- increase in TNF-α production ([1]; Th17, 0.1 μM BMS-986165): 77%
- increase of GM-CSF ([1]; Th17, 0.1 μM BMS-986165): 139%
- CCL20 % of Control [1, 3]: 157.8 % of Control
- GM-CSF % of Control [1, 3]: 239.3 % of Control
- IFN-γ % of Control [1, 3]: 74.7 % of Control
- IL-1β % of Control [1, 3]: 89.0 % of Control
- IL-2 % of Control [1, 3]: 250.3 % of Control
- IL-4 % of Control [1, 3]: 161.9 % of Control
- IL-5 % of Control [1, 3]: 249.9 % of Control
- IL-6 % of Control [1, 3]: 112.7 % of Control
- IL-10 % of Control [1, 3]: 46.6 % of Control
- IL-13 % of Control [1, 3]: 287.5 % of Control
- IL-17A % of Control [1, 3]: 79.2 % of Control
- IL-17F % of Control [1, 3]: 30.0 % of Control
- IL-21 % of Control [1, 3]: 86.3 % of Control
- IL-22 % of Control [1, 3]: 39.8 % of Control
- IL-23 % of Control [1, 3]: 96.3 % of Control
- TNF-α % of Control [1, 3]: 177.4 % of Control
- inhibition of IL-22 cytokine expression [1, 3]: 60%
- IL-17A levels [1, 3]: 428 pg/mL
- increase of GM-CSF ([1]; Th17, 1 μM BMS-986165): 104%
- inhibition of IL-22 cytokine expression ([1]; Th17, 1 μM BMS-986165): 70%
- IL-17A levels ([1]; Th17, 1 μM BMS-986165 (combination: + 1 μM apremilast)): 383 pg/mL
- inhibition of IL-17A expression ([1]; similar under Th0 and Th17, 0.001-1 μM BMS-986165): 10-25%
- effect on GM-CSF production ([1]; whole blood, Th0 and Th17): increased
- effect on TNF-α production ([1]; whole blood, Th0 and Th17): increased
- Viability (LPS stimulated PBMCs): —
